Laboratory results taken from patent US20230085721A1, “PIGMENT COMPRISING RAPHANUS SATIVUS EXTRACT AND MONTMORILLONITE” (GIVAUDAN SA, priority 2020, published 2023).
Marks after values point to notes of the source that are not given here.

Tested on: human normal keratinocytes (NHEKs)
Test: ROS production after oxidative stress (DCFH-DA method)
Type: cell-based
Conditions: 200 μM
Experimental: The anti-oxidant properties of Raphanus sativus L. root extract was evaluated using human normal keratinocytes (NHEKs) by quantification of Reactive Oxygen Species (ROS) production after oxidative stress exposure according to the dichlorodihydrofluorescein diacetate (DCFH-DA; “Dichloro-dihydro-fluorescein diacetate (DCFH-DA) assay: a quantitative method for oxidative stress assessment of nanoparticle-treated cells”. Aranda et al. Toxicol In Vitro. 2013, 27(2):954-63.) method. In contact with cells, DCFH-DA is cleaved inside the cell to DCFH which is able to interact with reactive oxygen species (ROS) during oxidative stress leading to fluorescence emission. Consequently, the fluorescence emitted is correlated to the antioxidant property of the tested compound. The cell culture was done on primary cells freshly isolated from biopsies. Normal Human Epidermal Keratinocytes (NHEKs) were seeded in a black plate with a glass bottom at 20′000 cells per well in 96-wells plates with a type I collagen pre-coating in quadruplicate. The cells were incubated for 24 hours in complete medium (Epilife medium supplemented with HKGS) at 37° C. with 5% CO2. […] Finally, the emitted fluorescence was measured in darkness by excitation wavelength at 488 nm and emission wavelength at 525 nm with microplate reader (TECAN). […]

Oc1ccc(C=Cc2cc(O)cc(O)c2)cc1 [Resveratrol] was tested, and the “Comparison to oxidative stress, no active” value (5 mM TBP, p < 0.001) was −76%*** and the “Mean relative to TBP condition” value (ROS, NHEKs, oxidative stress 5 mM TBP) was 24.0%.
